According to patent US6525178B2, “PGC-1, a novel brown fat PPARgamma coactivator” (Dana-Farber Cancer Institute, priority 1997, dated 2003):

What was measured:
HIB 1B brown fat cells = assay: Northern analysis of PGC-1 and UCP-1 mRNA in treated HIB 1B brown fat cells; assay type: cell-based, mouse; conditions: HIB 1B cells, 1 μM, 10 hr
Text: Cold is sensed in the central nervous system and results in increased sympathetic output to peripheral tissues, including muscle and brown fat Himms-Hagen (1989) Can. J. Physiol Pharmcol. 67:394-401). Cold exposure can be mimicked, in terms of brown adipocyte precursor cell growth and the induction of UCP-1, by exposure of cultured brown fat cells to β-adrenergic agonists (Rehnmark et al. (1990) J. Biol. Chem. 25:16464-16471). To determine if PGC-1 gene expression is also sensitive to β-adrenergic agonists, HIB 1B brown fat cells were treated with isoproterenol (1 μM), a nonsubtype selective β agonist, for 10 hr. Total cellular RNA was isolated and analyzed using PGC-1 and UCP-1 cDNA probes.
Briefly, HIB 1B brown fat preadipocytes were differentiated as described herein. After 6 days, cells were approximately 80% differentiated.

PPARα = biological target: T1, PPARα (Homo sapiens, UniProt Q07869); assay: In vitro binding of GST-PGC-1 to in vitro-translated nuclear receptor; conditions: ligand 1 μM
T1 construct: made in house; host or cells: receptor: reticulocyte lysate in vitro translation (Promega TNT); GST-PGC-1: E. coli
T1 sequence (Q07869 1-468): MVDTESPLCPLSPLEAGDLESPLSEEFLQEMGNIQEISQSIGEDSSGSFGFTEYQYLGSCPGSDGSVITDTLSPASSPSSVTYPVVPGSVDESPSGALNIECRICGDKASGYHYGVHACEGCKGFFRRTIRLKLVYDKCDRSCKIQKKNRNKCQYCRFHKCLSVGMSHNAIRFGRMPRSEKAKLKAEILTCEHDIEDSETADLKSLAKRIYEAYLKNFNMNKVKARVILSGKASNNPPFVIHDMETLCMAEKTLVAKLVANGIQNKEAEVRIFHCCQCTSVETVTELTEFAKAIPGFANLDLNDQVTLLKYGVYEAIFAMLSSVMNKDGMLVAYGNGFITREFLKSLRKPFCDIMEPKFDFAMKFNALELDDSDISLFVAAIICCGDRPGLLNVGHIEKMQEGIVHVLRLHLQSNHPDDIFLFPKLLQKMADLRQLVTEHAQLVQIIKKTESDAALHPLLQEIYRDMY
T1 sequence (O70343 36-797 partner limits assumed): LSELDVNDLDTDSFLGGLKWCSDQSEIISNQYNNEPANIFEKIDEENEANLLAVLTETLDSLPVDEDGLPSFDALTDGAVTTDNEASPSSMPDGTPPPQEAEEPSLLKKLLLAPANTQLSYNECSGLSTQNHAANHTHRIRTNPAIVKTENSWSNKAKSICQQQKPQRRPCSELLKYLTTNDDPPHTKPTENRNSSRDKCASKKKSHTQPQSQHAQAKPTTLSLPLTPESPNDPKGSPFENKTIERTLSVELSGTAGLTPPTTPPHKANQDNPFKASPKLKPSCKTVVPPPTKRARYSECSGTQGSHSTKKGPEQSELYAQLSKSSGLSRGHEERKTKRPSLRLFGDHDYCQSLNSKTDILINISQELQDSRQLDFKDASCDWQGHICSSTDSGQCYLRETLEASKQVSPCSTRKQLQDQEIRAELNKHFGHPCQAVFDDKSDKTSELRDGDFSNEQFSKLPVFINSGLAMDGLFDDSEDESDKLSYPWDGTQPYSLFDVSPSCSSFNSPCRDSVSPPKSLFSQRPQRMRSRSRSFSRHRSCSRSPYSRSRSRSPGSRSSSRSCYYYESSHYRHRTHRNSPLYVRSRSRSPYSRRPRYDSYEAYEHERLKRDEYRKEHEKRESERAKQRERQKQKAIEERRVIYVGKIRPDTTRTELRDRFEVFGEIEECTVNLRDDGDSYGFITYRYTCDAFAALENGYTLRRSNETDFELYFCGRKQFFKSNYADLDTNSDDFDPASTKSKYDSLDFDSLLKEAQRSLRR
Experimental: (§1) The assays were carried out as follows.

retinoic acid receptor = biological target: T2, retinoic acid receptor (Homo sapiens, UniProt P10276); assay: as above; conditions: ligand 1 μM
T2 sequence (P10276 1-462): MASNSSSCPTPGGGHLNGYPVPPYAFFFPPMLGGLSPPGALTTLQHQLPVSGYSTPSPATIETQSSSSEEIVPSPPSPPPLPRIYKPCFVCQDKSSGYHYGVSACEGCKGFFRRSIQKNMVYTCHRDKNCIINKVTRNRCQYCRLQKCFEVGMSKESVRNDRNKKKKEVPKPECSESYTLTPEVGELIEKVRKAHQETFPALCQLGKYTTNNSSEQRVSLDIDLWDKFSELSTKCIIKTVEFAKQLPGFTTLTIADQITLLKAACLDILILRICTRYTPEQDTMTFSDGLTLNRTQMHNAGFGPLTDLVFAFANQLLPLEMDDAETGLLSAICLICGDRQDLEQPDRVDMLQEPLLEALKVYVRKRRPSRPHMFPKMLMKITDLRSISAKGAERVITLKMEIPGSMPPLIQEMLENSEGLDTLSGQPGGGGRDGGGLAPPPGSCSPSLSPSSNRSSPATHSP
T2 sequence (O70343 36-797 partner limits assumed): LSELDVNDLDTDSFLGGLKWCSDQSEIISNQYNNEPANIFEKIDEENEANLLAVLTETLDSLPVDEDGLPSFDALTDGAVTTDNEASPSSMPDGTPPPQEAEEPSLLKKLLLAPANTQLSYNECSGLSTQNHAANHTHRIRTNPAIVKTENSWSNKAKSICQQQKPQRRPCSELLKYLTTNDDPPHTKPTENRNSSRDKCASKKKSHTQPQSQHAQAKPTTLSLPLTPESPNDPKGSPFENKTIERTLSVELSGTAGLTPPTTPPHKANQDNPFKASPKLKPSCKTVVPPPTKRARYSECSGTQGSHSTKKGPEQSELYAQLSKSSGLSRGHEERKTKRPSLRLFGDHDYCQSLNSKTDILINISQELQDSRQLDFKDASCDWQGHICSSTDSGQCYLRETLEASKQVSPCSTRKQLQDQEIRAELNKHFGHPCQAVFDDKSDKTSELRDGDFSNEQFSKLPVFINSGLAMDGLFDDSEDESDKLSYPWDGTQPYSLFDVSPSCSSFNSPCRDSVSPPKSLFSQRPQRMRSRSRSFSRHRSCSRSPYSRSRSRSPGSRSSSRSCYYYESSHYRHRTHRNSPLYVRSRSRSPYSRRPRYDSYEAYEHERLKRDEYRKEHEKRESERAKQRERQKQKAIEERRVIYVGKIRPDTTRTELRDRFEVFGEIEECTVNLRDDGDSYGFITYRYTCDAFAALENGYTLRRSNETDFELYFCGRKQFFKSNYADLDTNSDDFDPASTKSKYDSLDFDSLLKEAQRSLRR

PPARδ = biological target: T3, PPARδ (Homo sapiens, UniProt Q03181); assay: as above; conditions: ligand 1 μM
T3 construct: made in house; host or cells: receptor: reticulocyte lysate in vitro translation (Promega TNT); GST-PGC-1: E. coli
T3 sequence (Q03181 1-441): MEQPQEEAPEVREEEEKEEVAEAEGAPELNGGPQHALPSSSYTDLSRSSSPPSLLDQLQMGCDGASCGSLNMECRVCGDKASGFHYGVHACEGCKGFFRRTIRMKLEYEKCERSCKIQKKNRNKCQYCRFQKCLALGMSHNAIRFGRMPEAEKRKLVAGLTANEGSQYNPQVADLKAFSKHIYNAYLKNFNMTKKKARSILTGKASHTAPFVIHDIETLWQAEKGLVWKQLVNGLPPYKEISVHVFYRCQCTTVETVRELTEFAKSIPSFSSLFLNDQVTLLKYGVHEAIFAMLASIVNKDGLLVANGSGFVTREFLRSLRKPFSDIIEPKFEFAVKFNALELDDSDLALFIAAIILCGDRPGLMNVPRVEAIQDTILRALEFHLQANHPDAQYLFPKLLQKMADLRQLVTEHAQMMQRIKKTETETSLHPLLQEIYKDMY
T3 sequence (O70343 36-797 partner limits assumed): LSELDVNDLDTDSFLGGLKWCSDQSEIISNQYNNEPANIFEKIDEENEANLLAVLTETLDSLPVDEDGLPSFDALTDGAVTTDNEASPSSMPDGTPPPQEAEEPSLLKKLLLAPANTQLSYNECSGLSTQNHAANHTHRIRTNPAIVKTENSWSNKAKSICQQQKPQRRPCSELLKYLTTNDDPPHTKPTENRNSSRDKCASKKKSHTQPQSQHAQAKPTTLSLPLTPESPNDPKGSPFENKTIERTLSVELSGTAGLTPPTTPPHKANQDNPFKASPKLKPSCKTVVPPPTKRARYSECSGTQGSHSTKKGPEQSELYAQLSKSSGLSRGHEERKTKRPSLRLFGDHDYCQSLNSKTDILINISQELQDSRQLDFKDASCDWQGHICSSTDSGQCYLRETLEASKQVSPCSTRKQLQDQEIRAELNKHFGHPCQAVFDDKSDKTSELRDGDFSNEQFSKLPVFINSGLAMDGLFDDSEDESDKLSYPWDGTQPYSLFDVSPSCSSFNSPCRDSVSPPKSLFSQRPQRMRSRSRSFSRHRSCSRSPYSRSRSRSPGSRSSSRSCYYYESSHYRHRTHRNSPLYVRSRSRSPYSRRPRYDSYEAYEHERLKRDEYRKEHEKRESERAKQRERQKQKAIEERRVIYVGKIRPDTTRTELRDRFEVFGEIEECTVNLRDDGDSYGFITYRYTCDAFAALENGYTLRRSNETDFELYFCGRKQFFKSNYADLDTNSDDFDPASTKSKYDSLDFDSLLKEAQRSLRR
Experimental: as §1

PPARγ = assay: Binding of in vitro-translated PGC-1 C-terminal deletions to immobilized PPARγ fusion protein; design: species or system mouse; conditions: 35S-labelled PGC-1 deletions
Text: The interaction between nuclear receptors and certain coactivators such as SRC-1 or CBP is ligand dependent (Kamai et al. (1996) Cell 84:403-414) and involves an LXXLL (SEQ ID NO:3) motif in the coactivators and the C-terminal AF-2 domain in the receptors (Heery et al. (1997) Nature 387:733-736; Torchia et al. (1997) Nature 387:677-684). To identify the domains responsible for PGC-1-PPARγ interactions, different C-terminal deletions of PGC-1 were generated as reticulocyte translation products and mixed with a […] fusion protein. Deletions of PGC-1 were made using specific restriction sites in the PGC-1 cDNA closed in pBluescript. The following restriction enzymes were used for these deletions: full-length Xhol (aa-1-797), Haell (aa 1-675) Ncol (aa 1-503), Xbal (aa 1-403), Kpnl (aa 1-338), and Stul (aa 1-292). These were then translated into vitro with an [^35S]methionine-label. One microliter of each in vitro translation reaction was resolved by SDS-PAGE and autoradiographed.
FIG. 4 summarizes the input of both the full-length PGC-1(1-797) and the 1-675 deletion which bind to the immobilized PPARγ.

Sequence of PPARγ (P37238 183-505 limits assumed): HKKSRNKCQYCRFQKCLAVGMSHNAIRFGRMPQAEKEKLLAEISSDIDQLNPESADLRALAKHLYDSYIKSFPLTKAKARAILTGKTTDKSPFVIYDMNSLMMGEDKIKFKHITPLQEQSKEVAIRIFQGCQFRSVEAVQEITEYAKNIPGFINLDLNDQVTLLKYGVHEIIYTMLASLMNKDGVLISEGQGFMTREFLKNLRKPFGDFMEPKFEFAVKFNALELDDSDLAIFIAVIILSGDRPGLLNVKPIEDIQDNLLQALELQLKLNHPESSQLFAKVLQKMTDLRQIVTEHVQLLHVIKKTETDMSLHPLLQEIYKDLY

CC(C)NCC(O)c1ccc(O)c(O)c1 (stereo not shown) [isoproterenol]
PGC-1 mRNA (HIB 1B brown fat cells): sharp increase | UCP-1 mRNA (HIB 1B brown fat cells): sharp increase

CCCCC/C=C\C[C@@H](O)/C=C/C=C/C=C\[C@@H](O)CCCC(=O)O [leukotriene-4]
ligand dependency of PGC-1 interaction with PPARα (PPARα): slight ligand dependency

CC1=C(/C=C/C(C)=C/C=C/C(C)=C/C(=O)O)C(C)(C)CCC1 [all-trans retinoic acid]
ligand dependency of PGC-1 interaction with the retinoic acid receptor (retinoic acid receptor): strong ligand dependency

CCCCC[C@H](O)/C=C/[C@@H]1[C@H]2C/C(=C/CCCC(=O)O)C[C@H]2C[C@H]1O [carboprostacyclin]
ligand dependency of PGC-1 interaction with PPARδ (PPARδ): slight ligand dependency

B1: PGC-1 1-503: C-terminal deletion of PGC-1, aa 1-503, lacks the SR and RNA-binding domains (protein)
chain: MAWDMCSQDSVWSDIECAALVGEDQPLCPDLPELDLSELDVNDLDTDSFLGGLKWCSDQSEIISNQYNNEPANIFEKIDEENEANLLAVLTETLDSLPVDEDGLPSFDALTDGAVTTDNEASPSSMPDGTPPPQEAEEPSLLKKLLLAPANTQLSYNECSGLSTQNHAANHTHRIRTNPAIVKTENSWSNKAKSICQQQKPQRRPCSELLKYLTTNDDPPHTKPTENRNSSRDKCASKKKSHTQPQSQHAQAKPTTLSLPLTPESPNDPKGSPFENKTIERTLSVELSGTAGLTPPTTPPHKANQDNPFKASPKLKPSCKTVVPPPTKRARYSECSGTQGSHSTKKGPEQSELYAQLSKSSGLSRGHEERKTKRPSLRLFGDHDYCQSLNSKTDILINISQELQDSRQLDFKDASCDWQGHICSSTDSGQCYLRETLEASKQVSPCSTRKQLQDQEIRAELNKHFGHPCQAVFDDKSDKTSELRDGDFSNEQFSKLPVFINSG
percentage of input material that bound to PPARγ (PPARγ): 18%

B2: PGC-1 1-292: C-terminal deletion of PGC-1, aa 1-292, still contains the LXXLL motif (protein)
chain: MAWDMCSQDSVWSDIECAALVGEDQPLCPDLPELDLSELDVNDLDTDSFLGGLKWCSDQSEIISNQYNNEPANIFEKIDEENEANLLAVLTETLDSLPVDEDGLPSFDALTDGAVTTDNEASPSSMPDGTPPPQEAEEPSLLKKLLLAPANTQLSYNECSGLSTQNHAANHTHRIRTNPAIVKTENSWSNKAKSICQQQKPQRRPCSELLKYLTTNDDPPHTKPTENRNSSRDKCASKKKSHTQPQSQHAQAKPTTLSLPLTPESPNDPKGSPFENKTIERTLSVELSGTAG
percentage of input material that bound to PPARγ (PPARγ): completely loses the ability to interact with PPARγ
